From ChEMBL document CHEMBL6127065, “Design and Synthesis of c-Met and HDAC Dual Inhibitors for the Treatment of Breast Cancer” (ACS Med Chem Lett, 2024)
The source made the active and inactive calls. No cut-off for these calls is given here.

Key:
[1] = Cytotoxicity against human MCF-10A cells assessed as reduction in cell viability incubated for 72 hrs by MTT assay; type: toxicity, cell-based
MDA-MB-231 [2] = assay: Induction of apoptosis in human MDA-MB-231 cells assessed as viable cells at 2.5 uM incubated for 48 hrs by AnnexinV-FITC/PI staining based flow cytometry (reference value: 91.22 to 92.84%); type: functional; details: read-out: Activity
MDA-MB-231 [3] = assay: Induction of apoptosis in human MDA-MB-231 cells assessed as late apoptotic cells at 5 uM incubated for 48 hrs by AnnexinV-FITC/PI staining based flow cytometry (reference value: 3.77 to 3.84%); type: functional
MDA-MB-231 [4] = assay: Induction of apoptosis in human MDA-MB-231 cells assessed as late apoptotic cells at 10 uM incubated for 48 hrs by AnnexinV-FITC/PI staining based flow cytometry (reference value: 3.77 to 3.84%); type: functional
MDA-MB-231 [5] = assay: Induction of apoptosis in human MDA-MB-231 cells assessed as viable cells at 25 uM incubated for 48 hrs by AnnexinV-FITC/PI staining based flow cytometry (reference value: 91.22 to 92.84%); type: functional; details: read-out: Activity
MDA-MB-231 [6] = assay: Induction of apoptosis in human MDA-MB-231 cells assessed as upregulation of cleaved caspase 3 level at 1 to 25 uM incubated for 48 hrs by western blot analysis; type: functional, cell-based; details: dose 1-25 µM
MDA-MB-231 [7] = assay: Induction of apoptosis in human MDA-MB-231 cells assessed as upregulation of cleaved caspase 7 level at 1 to 25 uM incubated for 48 hrs by western blot analysis; type: functional, cell-based; details: dose 1-25 µM
MDA-MB-231 [8] = assay: Induction of apoptosis in human MDA-MB-231 cells assessed as upregulation of cleaved caspase 8 level at 1 to 25 uM incubated for 48 hrs by western blot analysis; type: functional, cell-based; details: dose 1-25 µM
MDA-MB-231 [9] = assay: Induction of cell cycle arrest in human MDA-MB-231 cells assessed as accumulation of cells at G2/M phase at 1 uM incubated for 48 hrs by PI staining based flow cytometry (reference value: 29.42 to 32.08%); type: functional
MDA-MB-231 [10] = assay: Induction of cell cycle arrest in human MDA-MB-231 cells assessed as accumulation of cells at G0/G1 phase at 25 uM incubated for 48 hrs by PI staining based flow cytometry (reference value: 55.36 to 55.82%); type: functional
MDA-MB-231 [11] = assay: Induction of cell cycle arrest in human MDA-MB-231 cells assessed as accumulation of cells at G2/M phase at 25 uM incubated for 48 hrs by PI staining based flow cytometry (reference value: 29.42 to 32.08%); type: functional

For `CC(c1ccc2ncccc2c1)n1nnc2ncc(N3CCN(Cc4ccc(/C=C/C(=O)Nc5ccccc5N)cc4)CC3)nc21` (stereo unspecified), which IC50 at 72 h [1] is on record?
Its IC50 at 72 h is over 25 µM.

What about the viability at 2.5 µM (MDA-MB-231 [2]) of the same compound?
The viability at 2.5 µM was 84.3%.

And the Activity (MDA-MB-231 [3])?
Its Activity is 6.84%.

What about the Activity (MDA-MB-231 [4]) of the same compound?
Its Activity is 10.69%.

What about the viability at 25 µM (MDA-MB-231 [5]) of the same compound?
The viability at 25 µM was 82.8%.

What about the Activity (MDA-MB-231 [6]) of the same compound?
The Activity was “Active”.

And the Activity (MDA-MB-231 [7])?
Its Activity is “Active”.

What about the Activity (MDA-MB-231 [8]) of the same compound?
The Activity was “Active”.

What about the Activity (MDA-MB-231 [9]) of the same compound?
Its Activity is 27.08%.

What about the Activity (MDA-MB-231 [10]) of the same compound?
Its Activity is 83.37%.

What about the Activity (MDA-MB-231 [11]) of the same compound?
The Activity was 10.57%.
